Experimental data taken from patent publication US7956083B2, “Compounds” (Glaxo Group Limited, priority 2008, dated 2011).

Biological target: human ER beta (Homo sapiens, UniProt Q92731)
Assay: ER beta FP binding assay (fluorescence polarisation, Fluormone EL Red ligand)
Details: 6 nM ERbeta protein, 1.5 nM ER FP ligand, 3 hours at room temperature; read-out: pIC50 in the ER beta FP binding assay (converted)
Procedure: Assay Buffer (AB) (50 mM MOPES pH 7.5, 50 mM NaF, 2.5 mM CHAPs), in deionized water, 5 mM 1,4 dithiothreitol (DTT) added on day of the experiment. The appropriate amount of AB was placed in a plastic tube, adding solid DTT before the assay was run. AB with DTT was distributed to plastic tubes. We have found use of plastic to be important vs glass. A final concentration of 6 nM ERbeta protein was added to the tube followed by gentle inversion. A final concentration of 1.5 nM ER FP ligand (Fluormone™ EL Red 200 nM in 20 mM Tris, 90% Methanol purchased from Invitrogen catalogue no P3030) was added to the same tube followed by gentle inversion. This was allowed to sit for 5-10 minutes before adding it to the 384 assay plate. Similar protocol was used for ERalpha with a final concentration of 4 nM ERalpha and 1.5 nM ER FP ligand.
384 plates containing test compounds dissolved in 100% DMSO at 1 mM were serially diluted (1:3) by a Beckman FX. Serial diluted test compounds were added, 0.1 μL, to the assay plates with a maximum final concentration of 10 uM. Once the assay plates were ready, 10 μL of the above reagents were added to the appropriate set of plates with the Thermo combi. These plates were then sealed and place at room temperature for 3 hours.
The plates were then placed on the Molecular Devices Analyst and counted (excitation 535 nm, emission 590 nm with a 561 Dichroic mirror). Data was normalized to control then fitted to a non-linear least squares algorithm (see below).
pIC50 Calculation y=a+((b−a)/(1+(10^x/10^c){circumflex over (0)}d)
The amino acid sequence of human ER beta used in this assay is […]

human ER beta, sequence (Q92731 with tags, fused parts or gaps): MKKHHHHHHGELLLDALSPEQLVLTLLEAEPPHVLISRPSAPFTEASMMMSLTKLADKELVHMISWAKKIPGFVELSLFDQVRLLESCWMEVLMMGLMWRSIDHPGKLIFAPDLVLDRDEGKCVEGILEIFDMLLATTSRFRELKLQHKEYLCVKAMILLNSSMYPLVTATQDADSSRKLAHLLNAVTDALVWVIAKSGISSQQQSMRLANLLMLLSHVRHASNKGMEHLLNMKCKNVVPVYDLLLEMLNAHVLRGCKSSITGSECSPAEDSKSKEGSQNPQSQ

SMILES | IC50
Oc1ccc(-n2ccc3c(O)cc(F)cc32)cc1 [Example 10, 6-fluoro-1-(4-hydroxyphenyl)-1H-indol-4-ol] | < 10 nM
Oc1ccc(-n2ccc3c(O)ccc(Cl)c32)cc1F [Example 7, 7-Chloro-1-(3-fluoro-4-hydroxyphenyl)-1H-indol-4-ol] | < 10 nM
Oc1ccc(-n2ccc3c(O)cc(F)cc32)cc1F [Example 9, 6-Fluoro-1-(3-fluoro-4-hydroxyphenyl)-1H-indol-4-ol] | < 10 nM
N#Cc1cc(O)c2ccn(-c3ccc(O)c(F)c3)c2c1 [Example 8, 1-(3-Fluoro-4-hydroxyphenyl)-4-hydroxy-1H-indole-6-carbonitrile] | < 10 nM

Continued, values first:

IC50 | SMILES
< 10 nM | Oc1ccc(-n2ccc3c(O)c(F)cc(Br)c32)cc1F [Example 4, 7-bromo-5-fluoro-1-(3-fluoro-4-hydroxyphenyl)-1H-indol-4-ol]
< 10 nM | Oc1ccc(-n2ccc3c(O)c(F)ccc32)cc1F [Example 5, 5-fluoro-1-(3-fluoro-4-hydroxyphenyl)-1H-indol-4-ol]
